The text below walks through data of patent publication USRE38629E1, “Solid oral dosage form comprising a combination of metformin and glibenclamide” (Merck Sante, priority 1998, dated 2004).

Values after ≈ are worked out from the molar mass of the structure shown.

Data set [1] in a line: Glibenclamide particle size distribution. Type of data set: physicochemical. The following applies: glibenclamide batch. Here is the method: In-vivo bioavailability tests were performed with tablets prepared as disclosed in example 2, using two batches of glibenclamide. The two batches have the following 10 to 90% particle size range:
The distribution of the particle size of batches A and B are illustrated in FIG. 1.
Data from the studies with metformin hydrochloride/glibenclamide tablets formulated with glibenclamide of different particle size characteristics allowed the development of a correlation between drug particle size and the in vivo performance.

For data set [2] the following is noted: in water at 25° C.; cited from earlier work.

For `COc1ccc(Cl)cc1C(=O)NCCc1ccc(S(=O)(=O)NC(=O)NC2CCCCC2)cc1` [batch A, glibenclamide], in data set [1], the “10 to 90% particle size range” value is recorded as 3.47-38.08 μm. As to `COc1ccc(Cl)cc1C(=O)NCCc1ccc(S(=O)(=O)NC(=O)NC2CCCCC2)cc1` [batch B, glibenclamide], in data set [1], the “10 to 90% particle size range” value is 15.63-91.6 μm. Regarding `COc1ccc(Cl)cc1C(=O)NCCc1ccc(S(=O)(=O)NC(=O)NC2CCCCC2)cc1` [glibenclamide], the solubility in data set [2] was 100 µg/mL (≈ 202 µM).
